According to patent publication US20230131966A1, “FUNGICIDAL AMIDES” (FMC Corporation, priority 2020, published 2023):

Assays:
Type in all cases: in vivo
Phytophthora infestans = test: whole plant or invertebrate; details: tomato seedlings; for Test F disease control rating: 250 ppm, 100 = 100% disease control, 0 = no control; for Test F disease control rating (100 = 100% disease control, 0 = no disease control): rate 250 ppm, relative to the controls
Botrytis cinerea = test: Test E: tomato Botrytis control on tomato seedlings; details: for Test E disease control rating: 250 ppm, 100 = 100% disease control, 0 = no control; for Test E disease control rating (100 = 100% disease control, 0 = no disease control): rate 250 ppm, relative to the controls
[1] = test system: Puccinia recondita f. sp. tritici; test: Test B: wheat leaf rust control on wheat seedlings; details: for Test B disease control rating: 250 ppm, wheat seedlings, 100 = 100% disease control, 0 = no control; for Test B disease control rating (100 = 100% disease control, 0 = no disease control): rate 250 ppm, relative to the controls
[2] = test system: Erysiphe graminis f. sp. tritici; test: Test G: wheat powdery mildew control on wheat seedlings; details: for Test G disease control rating: 250 ppm, 100 = 100% disease control, 0 = no control; for Test G disease control rating (100 = 100% disease control, 0 = no disease control): rate 250 ppm, relative to the controls
Plasmopara viticola = test: Test D: grape downy mildew control on grape seedlings; details: for Test D disease control rating: 250 ppm, 100 = 100% disease control, 0 = no control; for Test D disease control rating (100 = 100% disease control, 0 = no disease control): rate 250 ppm, relative to the controls
Phakopsora pachyrhizi = test: Test A: Asian soybean rust control on soybean seedlings; details: for Test A disease control rating: 250 ppm, soybean seedlings, 100 = 100% disease control, 0 = no control; for Test A disease control rating (100 = 100% disease control, 0 = no disease control): rate 250 ppm, relative to the controls
Zymoseptoria tritici = test: Test C: wheat leaf blotch control on wheat seedlings; details: for Test C disease control rating: 250 ppm, wheat seedlings, 100 = 100% disease control, 0 = no control; for Test C disease control rating (100 = 100% disease control, 0 = no disease control): rate 250 ppm, relative to the controls

Row | SMILES | Test F disease control rating (Phytophthora infestans) [%] | Test E disease control rating (Botrytis cinerea) [%] | Test B disease control rating [1] [%] | Test G disease control rating [2] [%] | Test D disease control rating (Plasmopara viticola) [%] | Test A disease control rating (Phakopsora pachyrhizi) [%] | Test C disease control rating (Zymoseptoria tritici) [%] | Test F disease control rating (100 = 100% disease control, 0 = no disease control) (Phytophthora infestans) [%] | Test E disease control rating (100 = 100% disease control, 0 = no disease control) (Botrytis cinerea) [%] | Test B disease control rating (100 = 100% disease control, 0 = no disease control) [1] [%] | Test G disease control rating (100 = 100% disease control, 0 = no disease control) [2] [%] | Test D disease control rating (100 = 100% disease control, 0 = no disease control) (Plasmopara viticola) [%] | Test A disease control rating (100 = 100% disease control, 0 = no disease control) (Phakopsora pachyrhizi) [%] | Test C disease control rating (100 = 100% disease control, 0 = no disease control) (Zymoseptoria tritici) [%]
1 | CCC(OC(=O)[C@H](C)NC(=O)c1nccc(OC)c1OCOC(C)=O)c1ccc(C2CCCCC2)cc1 (single isomer, unassigned) [Compound 135] | 0 | 0 | 98 | 86 | 29 | 100 | 81 | – | – | – | – | – | – | –
2 | COc1ccnc(C(=O)N[C@@H](C)C(=O)OC(C)c2ccc(C3CCCCC3)cc2)c1OCOC(=O)C(C)C (single isomer, unassigned) [Compound 144] | 0 | 0 | 86 | 0 | 35 | 77 | 93 | – | – | – | – | – | – | –
3 | COc1ccnc(C(=O)N[C@@H](C)C(=O)OC(C)c2ccc(C3CCCCC3)cc2)c1OCOC(=O)C(C)C (single isomer, unassigned) [Compound 145] | 0 | 0 | 99 | 0 | 22 | 100 | 94 | – | – | – | – | – | – | –
4 | COc1ccnc(C(=O)N[C@@H](C)C(=O)OC(C)c2ccc(C3CCCCC3)cc2)c1OCOC(C)=O (single isomer, unassigned) [Compound 146] | 0 | 0 | 91 | 60 | 31 | 73 | 91 | – | – | – | – | – | – | –
5 | COc1ccnc(C(=O)N[C@@H](C)C(=O)OC(C)c2ccc(C3CCCCC3)cc2)c1OCOC(C)=O (single isomer, unassigned) [Compound 147] | 71 | 0 | 99 | 94 | 38 | 100 | 95 | – | – | – | – | – | – | –
6 | CCC(OC(=O)[C@H](C)NC(=O)c1nccc(OC)c1O)C1CCCCC1 (single isomer, unassigned) [Compound 167] | 0 | 0 | 100 | 0 | 41 | 100 | 90 | – | – | – | – | – | – | –
7 | CCC(OC(=O)[C@H](C)NC(=O)c1nccc(OC)c1OC(C)=O)C1CCCCC1 (single isomer, unassigned) [Compound 168] | 0 | 0 | 100 | 0 | 31 | 100 | 99 | – | – | – | – | – | – | –
8 | CCC(OC(=O)[C@H](C)NC(=O)c1nccc(OC)c1OC(C)=O)C1CCCCC1 (single isomer, unassigned) [Compound 169] | 0 | 0 | 41 | 35 | 17 | 100 | 83 | – | – | – | – | – | – | –
9 | CCC(OC(=O)[C@H](C)NC(=O)c1nccc(OC)c1OCOC(=O)C(C)C)C1CCCCC1 (single isomer, unassigned) [Compound 170] | 0 | 0 | 100 | 0 | 32 | 100 | 100 | – | – | – | – | – | – | –
10 | CCC(OC(=O)[C@H](C)NC(=O)c1nccc(OC)c1O)C1CCCCC1 (single isomer, unassigned) [Compound 182] | 0 | 0 | 0 | 0 | 15 | 100 | 45 | – | – | – | – | – | – | –
11 | COc1ccnc(C(=O)N[C@@H](C)C(=O)OC(C)C2CCCc3ccccc32)c1O (single isomer, unassigned) [Compound 183] | 0 | 0 | 99 | 0 | 44 | 100 | 98 | – | – | – | – | – | – | –
12 | COc1ccnc(C(=O)N[C@@H](C)C(=O)OC(C)C2CCCc3ccccc32)c1O (single isomer, unassigned) [Compound 184] | 0 | 0 | 99 | 0 | 64 | 100 | 100 | – | – | – | – | – | – | –
13 | CCC(OC(=O)[C@H](C)NC(=O)c1nccc(OC)c1OCOC(=O)C(C)C)C1CCCCC1 (single isomer, unassigned) [Compound 188] | – | – | – | – | – | – | – | 0 | 0 | 68 | 0 | 43 | 100 | 27
14 | CCC(OC(=O)[C@H](C)NC(=O)c1nccc(OC)c1OCOC(C)=O)C1CCCCC1 (single isomer, unassigned) [Compound 189] | – | – | – | – | – | – | – | 0 | 0 | 100 | 26 | 46 | 100 | 98
15 | CCC(OC(=O)[C@H](C)NC(=O)c1nccc(OC)c1OCOC(C)=O)C1CCCCC1 (single isomer, unassigned) [Compound 190] | – | – | – | – | – | – | – | 0 | 0 | 74 | 0 | 43 | 100 | 46
16 | COc1ccnc2c(=O)n([C@@H](C)C(=O)OC(C)c3ccc(C4CCCCC4)cc3)c(=O)oc12 (single isomer, unassigned) [Compound 194] | – | – | – | – | – | – | – | 0 | 0 | 68 | 0 | 18 | 87 | 37
17 | COc1ccnc2c(=O)n([C@@H](C)C(=O)OC(C)c3ccc(C4CCCCC4)cc3)c(=O)oc12 (single isomer, unassigned) [Compound 195] | – | – | – | – | – | – | – | 0 | 0 | 99 | 0 | 17 | 100 | 83
